Source: patent publication US9029395B2, “Tetrahydroquinoline derivatives useful as bromodomain inhibitors” (GlaxoSmithKline LLC, priority 2011, dated 2015)
Structures can show the parent of a compound that is named as a salt.

Tests used:
Bromodomain BRD4 (1-477) = target: T1, Bromodomain BRD4 (1-477) (Homo sapiens, UniProt O60885); assay: Time Resolved Fluorescence Resonance Energy Transfer (TR-FRET) binding assay, BRD4; settings: BRD4 100 nM, acetylated histone peptide 300 nM
T1 construct: Recombinant Human Bromodomains (BRD2 (1-473), BRD3 (1-435) and BRD4 (1-477)); made in house; host or cells: E. coli (pET15b vector)
Experimental: (§1) The binding of the compounds of formula (I) to Bromodomains BRD2, BRD3 and BRD4 was assessed using a time resolved fluorescent resonance energy transfer binding assay, that measures the binding of an acetylated histone peptide to the bromodomain protein.
(§2) The bromodomain protein, histone peptide and a variable concentration of test compound are incubated together to reach thermodynamic equilibrium.
(§3) • H-Ser-Gly-Arg-Gly-Lys(Ac)-Gly-Gly-Lys(Ac)-Gly-Leu-Gly-Lys(Ac)-Gly-Gly-Ala-Lys(Ac)-Arg-His-Gly-Ser-Gly-Ser-Lys(Biotin)-OH. 3TFA
(§4) Protein Production: Recombinant Human Bromodomains (BRD2 (1-473), BRD3 (1-435) and BRD4 (1-477)) were expressed in E. coli cells (in pET15b vector) with a six-His tag at the N-terminal. The His-tagged Bromodomain was extracted from E. coli cells using sonication and purified using a nickel sepharose 6FF column, the proteins were washed and then eluted with 50 mM Tris-Hcl pH8.0. 300 mM NaCl, 1 mM […] and 20 mM Imidazole. Further purification was performed by affinity chromatography on a HisTRAP HP column, eluting with a linear 0-500 mM sodium chloride gradient, over 20 column volumes. Final purification was completed by Superdex 200 prep grade size exclusion column. Purified protein was stored at −80 C in 20 mM HEPES pH 7.5 and 100 mM NaCl. Protein identity was confirmed by peptide mass fingerprinting and predicted molecular weight confirmed by mass spectrometry.
(§5) Protocol for Bromodomain BRD2, 3 and 4 Assays: All assay components were dissolved in buffer composition of 50 mM HEPES pH7.4, 50 mM NaCl and 0.5 mM CHAPS. The final concentration of bromodomain proteins were 100 nM and the histone peptide was 300 nM, these components are premixed and allowed to equilibrate for 1 hour in the dark. 8 μl of this reaction mixture was added to all wells containing 50 nl of various concentrations of test compound or DMSO vehicle (0.5% final) in Greiner 384 well black low volume microtitre plates and incubated in dark for 60 mins at room temperature. 2 μl of detection mixture containing anti-6his XL665 labeled antibody and streptavidin labeled with europium cryptate was added to all wells and a further dark incubation of at least 30 mins was performed. Plates were then read on the Envision platereader, (λex=317 nm, donor λEM=615 nm; acceptor λEM=665 nm; Dichroic LANCE dual). Time resolved fluorescent intensity measurements were made at both emission wavelengths and the ratio of acceptor/donor was calculated and used for data analysis. All data was normalized to the mean of 16 high and 16 low control wells on each plate. A four parameter curve fit of the following form was then applied: y=a+((b−a)/(1+(10^x/10^c)^d)
(§6) Where ‘a’ is the minimum, ‘b’ is the Hill slope, ‘c’ is the pIC50 and ‘d’ is the maximum.

[1] = tested on: LPS induced IL-6 secretion from whole blood; assay: Measurement of LPS induced IL-6 secretion from whole blood; format: cell-based; settings: LPS 200 ng/ml, 24 hours, IL-6 by immunoassay
Experimental: Activation of monocytic cells by agonists of toll-like receptors such as bacterial lipopolysaccharide (LPS) results in production of key inflammatory mediators including IL-6. Such pathways are widely considered to be central to the pathophysiology of a range of auto-immune and inflammatory disorders.
Compounds to be tested are diluted to give a range of appropriate concentrations of which 1 μl of the diluted stocks is added to a 96 well plate. Following addition of whole blood (130 μl) the plates are incubated at 37 degrees (5% CO2) for 30 min before the addition of 10 μl of 2.8 ug/ml LPS, diluted in complete RPMI 1640 (final concentration=200 ng/ml), to give a total volume of 140 ul per well. After further incubation for 24 hours at 37 degrees, 140 μl of PBS are added to each well. The plates are sealed, shaken for 10 minutes and then centrifuged (2500 rpm×10 min). 100 μl of the supernatant are removed and IL-6 levels assayed by immunoassay (typically by MesoScale Discovery technology) either immediately or following storage at −20 degrees. Concentration response curves for each compound was generated from the data and an IC50 value was calculated.

Bromodomain BRD2 (1-473) = target: T2, Bromodomain BRD2 (1-473) (Homo sapiens, UniProt P25440); assay: Time Resolved Fluorescence Resonance Energy Transfer (TR-FRET) binding assay, BRD2; settings: BRD2 100 nM, acetylated histone peptide 300 nM
T2 construct: Recombinant Human Bromodomains (BRD2 (1-473), BRD3 (1-435) and BRD4 (1-477)); made in house; host or cells: E. coli (pET15b vector)
Experimental: as §1, §2, §3, §4, §5, §6

Bromodomain BRD3 (1-435) = target: T3, Bromodomain BRD3 (1-435) (Homo sapiens, UniProt Q15059); assay: Time Resolved Fluorescence Resonance Energy Transfer (TR-FRET) binding assay, BRD3; settings: BRD3 100 nM, acetylated histone peptide 300 nM
T3 construct: Recombinant Human Bromodomains (BRD2 (1-473), BRD3 (1-435) and BRD4 (1-477)); made in house; host or cells: E. coli (pET15b vector)
Experimental: as §1, §2, §3, §4, §5, §6

T2 sequence (P25440 1-473): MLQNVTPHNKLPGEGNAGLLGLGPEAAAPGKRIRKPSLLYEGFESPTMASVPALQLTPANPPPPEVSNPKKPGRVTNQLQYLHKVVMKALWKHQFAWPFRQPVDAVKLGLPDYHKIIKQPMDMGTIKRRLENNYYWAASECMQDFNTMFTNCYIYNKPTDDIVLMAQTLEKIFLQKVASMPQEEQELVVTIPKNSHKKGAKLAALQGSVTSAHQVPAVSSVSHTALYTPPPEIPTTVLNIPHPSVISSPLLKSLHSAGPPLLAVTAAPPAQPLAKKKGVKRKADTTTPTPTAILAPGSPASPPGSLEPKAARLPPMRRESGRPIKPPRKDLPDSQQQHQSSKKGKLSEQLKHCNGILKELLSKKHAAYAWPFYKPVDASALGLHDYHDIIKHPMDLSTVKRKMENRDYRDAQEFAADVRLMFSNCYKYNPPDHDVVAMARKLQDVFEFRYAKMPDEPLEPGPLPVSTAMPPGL
T3 sequence (Q15059 1-435): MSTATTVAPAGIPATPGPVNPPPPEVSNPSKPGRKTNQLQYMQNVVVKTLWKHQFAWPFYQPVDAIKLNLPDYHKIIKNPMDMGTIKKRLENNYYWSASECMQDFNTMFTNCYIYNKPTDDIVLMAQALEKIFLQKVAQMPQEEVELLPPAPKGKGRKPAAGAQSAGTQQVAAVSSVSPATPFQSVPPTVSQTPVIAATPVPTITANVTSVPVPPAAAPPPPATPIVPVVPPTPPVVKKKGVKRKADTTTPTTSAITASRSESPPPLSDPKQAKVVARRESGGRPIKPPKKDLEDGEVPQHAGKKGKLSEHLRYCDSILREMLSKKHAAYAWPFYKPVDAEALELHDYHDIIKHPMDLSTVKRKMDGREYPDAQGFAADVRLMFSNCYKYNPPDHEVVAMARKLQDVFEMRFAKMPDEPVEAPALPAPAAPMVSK

SMILES	IC50 (Bromodomain BRD4 (1-477)) [nM]	IC50 [1] [nM]	IC50 (Bromodomain BRD2 (1-473)) [nM]	IC50 (Bromodomain BRD3 (1-435)) [nM]
CC(=O)N1c2ccc(-c3ccc(C(=O)OCCN(C)C)cc3)cc2[C@H](NC(=O)OC(C)C)C[C@@H]1C [Example 8, 2-(Dimethylamino)ethyl 4-((2S,4R)-1-acetyl-4-((isopropoxycarbonyl)amino)-2-methyl-1,2,3,4-tetrahydroquinolin-6-yl)benzoate]	63.1 to 501	200 to 3160	63.1 to 501	63.1 to 501
CC(=O)N1c2ccc(-c3ccc(C(=O)OCCN(C)C)cn3)cc2[C@H](Nc2ccc(C#N)cn2)C[C@@H]1C [Example 6, 2-(Dimethylamino)ethyl 6-((2S,4R)-1-acetyl-4-((5-cyanopyridin-2-yl)amino)-2-methyl-1,2,3,4-tetrahydroquinolin-6-yl)nicotinate]	63.1 to 501	200 to 3160	63.1 to 501	63.1 to 501
CC(=O)N1c2ccc(-c3ccc(C(=O)OCCCN(C)C)cc3)cc2[C@H](NC(=O)OC(C)C)C[C@@H]1C [Example 7, 3-(Dimethylamino)propyl 4-((2S,4R)-1-acetyl-4-((isopropoxycarbonyl)amino)-2-methyl-1,2,3,4-tetrahydroquinolin-6-yl)benzoate]	63.1 to 501	200 to 3160	63.1 to 501	63.1 to 501
CC(=O)N1c2ccc(-c3ccc(C(=O)OCC[N+](C)(C)C)cc3)cc2[C@H](Nc2ccc(Cl)cc2)C[C@@H]1C [Example 2, 2-((4-((2S,4R)-1-Acetyl-4-((4-chlorophenyl)amino)-2-methyl-1,2,3,4-tetrahydroquinolin-6-yl)benzoyl)oxy)-N,N,N-trimethylethanaminium, formate]	63.1 to 501	200 to 3160	63.1 to 501	63.1 to 501

Second part, the compound after the results:

IC50 (Bromodomain BRD4 (1-477)) [nM]	IC50 [1] [nM]	IC50 (Bromodomain BRD2 (1-473)) [nM]	IC50 (Bromodomain BRD3 (1-435)) [nM]	SMILES
63.1 to 501	200 to 3160	63.1 to 501	63.1 to 501	CC(=O)N1c2ccc(-c3ccc(C(=O)OCCCN(C)C)cn3)cc2[C@H](Nc2ccc(C#N)cn2)C[C@@H]1C [Example 5, 3-(Dimethylamino)propyl 6-((2S,4R)-1-acetyl-4-((5-cyanopyridin-2-yl)amino)-2-methyl-1,2,3,4-tetrahydroquinolin-6-yl)nicotinate]
63.1 to 501		63.1 to 501	63.1 to 501	CC(=O)N1c2ccc(-c3ccc(C(=O)OCCCN(C)C)cc3)cc2[C@H](Nc2ccc(Cl)cc2)C[C@@H]1C [Example 4, 3-(Dimethylamino)propyl 4-((2S,4R)-1-acetyl-4-((4-chlorophenyl)amino)-2-methyl-1,2,3,4-tetrahydroquinolin-6-yl)benzoate]
63.1 to 501	200 to 3160	63.1 to 501	63.1 to 501	CC(=O)N1c2ccc(-c3ccc(C(=O)OCCC[N+](C)(C)C)cc3)cc2[C@H](Nc2ccc(Cl)cc2)C[C@@H]1C [Example 3, 3-((4-((2S,4R)-1-Acetyl-4-((4-chlorophenyl)amino)-2-methyl-1,2,3,4-tetrahydroquinolin-6-yl)benzoyl)oxy)-N,N,N-trimethylpropan-1-aminium, formate]
63.1 to 501	200 to 3160	63.1 to 501	63.1 to 501	CC(=O)N1c2ccc(-c3ccc(C(=O)OCCN(C)C)cc3)cc2[C@H](Nc2ccc(Cl)cc2)C[C@@H]1C [Example 1, 2-(Dimethylamino)ethyl 4-((2S,4R)-1-acetyl-4-((4-chlorophenyl)amino)-2-methyl-1,2,3,4-tetrahydroquinolin-6-yl)benzoate hydrochloride]
